Read-outs that look alike come from different tables or passages of the source. Marks after values point to notes of the source that are not given here.
Assays:
Rhizoctonia solani = assay: Pathogen suppressive activity plate assay (zone of inhibition); format: cell-based; details: for zone of inhibition: Table 1, pathogen isolate P6; for mean inhibitory zone size: Table 4
Sclerotinia sclerotiorum = assay: as above; format: cell-based; details: for zone of inhibition: Table 1, pathogen isolate P19; for mean inhibitory zone size: Table 4
Fusarium oxysporum = assay: as above; format: cell-based; details: for zone of inhibition: Table 1; for mean inhibitory zone size: Table 4
Fusarium graminearum = format: cell-based; parameters: key to pathogen suppression (symbol): + refers to instances where there is some evidence for inhibition immediately over the surface of the dotted strain, but no clear inhibition zone beyond the dotted colony's edge; details: for zone of inhibition: Table 1; for pathogen suppression (symbol) / mean inhibitory zone size: Table 4
Phytophthora medicaginis = assay: Pathogen suppressive activity plate assay (zone of inhibition); format: cell-based; details: for zone of inhibition: Table 1; for mean inhibitory zone size: Table 4
Phytophthora sojae = assay: as above; format: cell-based; details: for zone of inhibition: Table 1, pathogen isolate P52; for mean inhibitory zone size: Table 4, pathogen target isolate P52
[1] = system: Pythium ultimum var. sporangiferum; assay: as above; format: cell-based; details: for zone of inhibition: Table 1, pathogen isolate P58; for mean inhibitory zone size: Table 4, pathogen target isolate P58
F. culmorum = assay: as above; format: cell-based; details: Table 1; pathogen isolate P61
Fusarium virguliforme = assay: as above; format: cell-based; details: Table 4
[2] = system: clinical antimicrobials (antibiotic discs); assay: Antibiotic disc resistance/susceptibility assay of microbial isolates; format: cell-based
[3] = system: GS1, PS1 and PS3 (overlaid isolates); assay: Mutual inhibition activity among GS1, PS1 and PS3; format: cell-based; details: for inhibition zone size: mild inhibition
Procedure: Each of the microbes—GS1, PS1 and PS3—was grown in the presence of every other isolate (i.e., GS1 with PS1; GS1 with PS3; and PS1 with PS3). Briefly, isolates GS1, PS1 and PS3 were dotted onto the center of individual petri dishes and allowed to grow for 3 days. Dotted isolates were then killed by placing petri dishes over a chloroform-filled watch glass in a safety cabinet for one hour. Subsequently, overlays of the other two isolates spread across the entire petri dish surface. In this way, each isolate was tested as a potential inhibitor (dotted isolates) in combination with every isolate as a target (overlaid isolates). The growth of the microbial isolates was evaluated for the presence or absence of zones of inhibition at the interphase between the bacterial isolates. […] Results from this analysis show the potential for isolates to coexist without inhibiting one another.

potato scab = assay: Potato field trials: percent scab control; format: in vivo; parameters: concentration or dose not given beside the values
[4] = system: GS1 and PS3 (inhibition zones on Bacillus lawns); assay: Antimicrobial signaling/responsiveness among GS1, PS1, PS3; format: cell-based; details: increased inhibition zones around GS1 and PS3 vs single inoculant controls
[5] = system: random collection of Streptomyces from field soils; assay: Enhancement of antibiotic production in field-soil Streptomyces; format: cell-based

Brevibacillus laterosporus [PS3]
zone of inhibition (Rhizoctonia solani): 12.25 mm
mean inhibitory zone size (Rhizoctonia solani; pathogen target isolate P5): 3.25 mm
mean inhibitory zone size (Rhizoctonia solani; pathogen target isolate P6): 1.7875 mm
mean inhibitory zone size (Rhizoctonia solani; pathogen target isolate P12): 1.5 mm
zone of inhibition (Sclerotinia sclerotiorum): 11.48 mm
mean inhibitory zone size (Sclerotinia sclerotiorum; pathogen target isolate P16): 4.517 mm
mean inhibitory zone size (Sclerotinia sclerotiorum; pathogen target isolate P17): 5.567 mm
mean inhibitory zone size (Sclerotinia sclerotiorum; pathogen target isolate P18): 4.975 mm
mean inhibitory zone size (Sclerotinia sclerotiorum; pathogen target isolate P19): 5.8 mm
zone of inhibition (Fusarium oxysporum; pathogen isolate P27): 0 mm
zone of inhibition (Fusarium oxysporum; pathogen isolate P29): 0 mm
mean inhibitory zone size (Fusarium oxysporum; pathogen target isolate P25): 3.725 mm
mean inhibitory zone size (Fusarium oxysporum; pathogen target isolate P26): 4.1 mm
mean inhibitory zone size (Fusarium oxysporum; pathogen target isolate P28): 5.6 mm
mean inhibitory zone size (Fusarium oxysporum; pathogen target isolate P29): 4.225 mm
zone of inhibition (Fusarium graminearum; pathogen isolate P31): 10.35 mm
zone of inhibition (Fusarium graminearum; pathogen isolate P34): 14.58 mm
pathogen suppression (symbol) (Fusarium graminearum; pathogen target isolate P30): +**
pathogen suppression (symbol) (Fusarium graminearum; pathogen target isolate P31): +
pathogen suppression (symbol) (Fusarium graminearum; pathogen target isolate P32): +
pathogen suppression (symbol) (Fusarium graminearum; pathogen target isolate P33): +
pathogen suppression (symbol) (Fusarium graminearum; pathogen target isolate P34): +
pathogen suppression (symbol) (Fusarium graminearum; pathogen target isolate P35): +
zone of inhibition (Phytophthora medicaginis; pathogen isolate P43): 12.55 mm
zone of inhibition (Phytophthora medicaginis; pathogen isolate P44): 6.53 mm
mean inhibitory zone size (Phytophthora medicaginis; pathogen target isolate P43): 5.6 mm
mean inhibitory zone size (Phytophthora medicaginis; pathogen target isolate P44): 9.125 mm
zone of inhibition (Phytophthora sojae): 0 mm
mean inhibitory zone size (Phytophthora sojae): 10.3 mm
zone of inhibition [1]: 3.73 mm
mean inhibitory zone size [1]: 6.6 mm
zone of inhibition (F. culmorum): 5.48 mm
mean inhibitory zone size (Fusarium virguliforme; pathogen target isolate P20): 5.2 mm
mean inhibitory zone size (Fusarium virguliforme; pathogen target isolate P21): 9.5 mm
mean inhibitory zone size (Fusarium virguliforme; pathogen target isolate P22): 8.975 mm
mean inhibitory zone size (Fusarium virguliforme; pathogen target isolate P23): 6.175 mm
Antibiotic resistance characteristics ([2]; Amoxicillin Clavulanate): MR (MR-moderately resistant (1-5 mm))
Antibiotic resistance characteristics ([2]; Chloramphenicol): MS (MS-moderately susceptible (6-10 mm))
Antibiotic resistance characteristics ([2]; Erythromycin): S (S-susceptible (>10 mm))
Antibiotic resistance characteristics ([2]; Kanamycin): S (S-susceptible (>10 mm))
Antibiotic resistance characteristics ([2]; Novobiocin 5): S (S-susceptible (>10 mm))
Antibiotic resistance characteristics ([2]; Novobiocin 30): S (S-susceptible (>10 mm))
Antibiotic resistance characteristics ([2]; Rifampin): MR (MR-moderately resistant (1-5 mm))
Antibiotic resistance characteristics ([2]; Streptomycin): S (S-susceptible (>10 mm))
Antibiotic resistance characteristics ([2]; Tetracycline): MR (MR-moderately resistant (1-5 mm))
Antibiotic resistance characteristics ([2]; Vancomycin 5): MS (MS-moderately susceptible (6-10 mm))
Antibiotic resistance characteristics ([2]; Vancomycin 30): S (S-susceptible (>10 mm))
inhibition of the other members of the combination [3]: Neither isolate PS3 nor GS3 inhibit
Percent Control (reduction in scab severity vs non-inoculated plots) (potato scab; experiment BPP, disease on non-inoculated tubers 22.2): 27%
Percent Control (reduction in scab severity vs non-inoculated plots) (potato scab; experiment BSP, disease on non-inoculated tubers 24.3): 40%
Percent Control (reduction in scab severity vs non-inoculated plots) (potato scab; experiment BWP, disease on non-inoculated tubers 26.7): 30%
Percent Control (reduction in scab severity vs non-inoculated plots) (potato scab; experiment RPP, disease on non-inoculated tubers 15.6): 23%
Percent Control (reduction in scab severity vs non-inoculated plots) (potato scab; experiment RSCRG1, disease on non-inoculated tubers 28.1): 34%
Percent Control (reduction in scab severity vs non-inoculated plots) (potato scab; experiment RSP, disease on non-inoculated tubers 8.8): 42%

Streptomyces sp. 3211.1 [PS1]
zone of inhibition (Rhizoctonia solani): 0 mm
mean inhibitory zone size (Rhizoctonia solani; pathogen target isolate P5): 0 mm
mean inhibitory zone size (Rhizoctonia solani; pathogen target isolate P6): 0 mm
mean inhibitory zone size (Rhizoctonia solani; pathogen target isolate P12): 0 mm
zone of inhibition (Sclerotinia sclerotiorum): 0 mm
mean inhibitory zone size (Sclerotinia sclerotiorum; pathogen target isolate P17): 12.8 mm
mean inhibitory zone size (Sclerotinia sclerotiorum; pathogen target isolate P18): 3.25 mm
mean inhibitory zone size (Sclerotinia sclerotiorum; pathogen target isolate P19): 0 mm
zone of inhibition (Fusarium oxysporum; pathogen isolate P27): 0 mm
zone of inhibition (Fusarium oxysporum; pathogen isolate P29): 0 mm
mean inhibitory zone size (Fusarium oxysporum; pathogen target isolate P25): 0 mm
mean inhibitory zone size (Fusarium oxysporum; pathogen target isolate P26): 0 mm
mean inhibitory zone size (Fusarium oxysporum; pathogen target isolate P28): 0 mm
mean inhibitory zone size (Fusarium oxysporum; pathogen target isolate P29): 0 mm
zone of inhibition (Fusarium graminearum; pathogen isolate P31): 3.05 mm
zone of inhibition (Fusarium graminearum; pathogen isolate P34): 0 mm
mean inhibitory zone size (Fusarium graminearum; pathogen target isolate P30): 0 mm
mean inhibitory zone size (Fusarium graminearum; pathogen target isolate P31): 3.05 mm
mean inhibitory zone size (Fusarium graminearum; pathogen target isolate P32): 0 mm
mean inhibitory zone size (Fusarium graminearum; pathogen target isolate P33): 0 mm
mean inhibitory zone size (Fusarium graminearum; pathogen target isolate P34): 0 mm
mean inhibitory zone size (Fusarium graminearum; pathogen target isolate P35): 0 mm
zone of inhibition (Phytophthora medicaginis; pathogen isolate P43): 0 mm
zone of inhibition (Phytophthora medicaginis; pathogen isolate P44): 0 mm
mean inhibitory zone size (Phytophthora medicaginis; pathogen target isolate P43): 0 mm
mean inhibitory zone size (Phytophthora medicaginis; pathogen target isolate P44): 0 mm
zone of inhibition (Phytophthora sojae): 0 mm
mean inhibitory zone size (Phytophthora sojae): 0 mm
zone of inhibition [1]: 0 mm
mean inhibitory zone size [1]: 0 mm
zone of inhibition (F. culmorum): 0 mm
mean inhibitory zone size (Fusarium virguliforme; pathogen target isolate P20): 0 mm
mean inhibitory zone size (Fusarium virguliforme; pathogen target isolate P21): 0 mm
mean inhibitory zone size (Fusarium virguliforme; pathogen target isolate P22): 0 mm
mean inhibitory zone size (Fusarium virguliforme; pathogen target isolate P23): 3.58 mm
Antibiotic resistance characteristics ([2]; Amoxicillin Clavulanate): MR (MR-moderately resistant (1-5 mm))
Antibiotic resistance characteristics ([2]; Chloramphenicol): R (R-resistant (0 inhibition zone))
Antibiotic resistance characteristics ([2]; Erythromycin): MR (MR-moderately resistant (1-5 mm))
Antibiotic resistance characteristics ([2]; Kanamycin): S (S-susceptible (>10 mm))
Antibiotic resistance characteristics ([2]; Novobiocin 5): MR (MR-moderately resistant (1-5 mm))
Antibiotic resistance characteristics ([2]; Novobiocin 30): MS (MS-moderately susceptible (6-10 mm))
Antibiotic resistance characteristics ([2]; Penicillin): R (R-resistant (0 inhibition zone))
Antibiotic resistance characteristics ([2]; Rifampin): MR (MR-moderately resistant (1-5 mm))
Antibiotic resistance characteristics ([2]; Streptomycin): MS (MS-moderately susceptible (6-10 mm))
Antibiotic resistance characteristics ([2]; Tetracycline): MR (MR-moderately resistant (1-5 mm))
Antibiotic resistance characteristics ([2]; Vancomycin 5): MS (MS-moderately susceptible (6-10 mm))
Antibiotic resistance characteristics ([2]; Vancomycin 30): MS (MS-moderately susceptible (6-10 mm))
inhibition zone size ([3]; against GS1): < 5 mm
inhibition zone size ([3]; against GS3 (so in the source)): < 5 mm
effect on antibiotic production by the two other isolates [4]: enhance antibiotic production
more effective than other isolates in enhancing antibiotic production [5]: ~50%
share of a random collection of Streptomyces whose antibiotic production is enhanced [5]: 30%
